Consider 35 compounds from patent publication US7829585B2, “Antifungal agent containing pyridine derivative” (Eisai R&D Management Co., Ltd., priority 2005, dated 2010).

≈ marks a conversion by molar mass, not a printed value.

Experiment [1] deals with C. albicans E81022 strain. As to the kind of experiment: Anti-Candida activity, MIC measurement (broth dilution, visual inspection). The class given is cell-based. To be noted: C. albicans E81022, RPMI1640, 48 hours at 35° C.; for MIC: Candida albicans, E81022STRAIN, read-out: Anti-Candida activity (minimum growth inhibitory concentration, MIC). As for the experimental part:
(§1) For the C. albicans E81022 strain, a fungal suspension from a standing culture 48 hours at 30° C. in a Sabouraud dextrose liquid culture medium (SDB) was diluted 10000-fold with 1.3-times concentrated RPMI1640 medium to prepare a fungal suspension containing 1 to 2×10^4 cells/ml. For the A. fumigatus Tsukuba strain, −80° C. stored strain was diluted 1000-fold with 1.3-times concentrated RPMI1640 medium to prepare a fungal suspension containing 2 to 3×10^3 cells/ml.
(§2) Using a U-shaped bottomed 96-well plates, 8 samples/plate (A to H) of sample dilution solutions were prepared. On the first row was dispensed 240 μl of sterile distilled water, and on the 2nd to 12th row were dispersed 125 μL of 4% dimethylsulfoxide solution. Weighed sample was dissolved in dimethylsulfoxide to prepare a 5 mg/ml solution followed by adding 10 μL of the solutions to the first row of the prepared plates and preparing 12-step serial 2-fold dilutions (125 μL of solution+125 μL of 4% dimethylsulfoxide solution) on the plates.
(§3) The fungal suspension prepared in (1) was used in the amount of 75 μL/well to inoculate the flat-bottomed 96-well plates containing 25 μL/well of the test compound prepared in (2), and a standing culture was carried out aerobically for 48 hours at 35° C.
(In broth dilution the organism is exposed to a series of concentrations in liquid medium.)

Experiment [2] relates to A. fumigatus Tsukuba strain. In words: Anti-Aspergillus activity, MIC measurement (broth dilution, visual inspection). The class given is cell-based. To be noted: RPMI1640, 48 hours at 35° C., read-out: Anti-Aspergillus activity (minimum growth inhibitory concentration, MIC). How it is done: as §1, §2, §3

With `COCc1ccc2cc(CNC(=O)c3ccc(COC)nc3N)oc2c1` [Example 47, 2-Amino-6-methoxymethyl-N-(6-methoxymethyl-benzofuran-2-ylmethyl)-nicotinamide], the MIC in experiment [1] is 0.78 µg/mL (≈ 2.19 µM); in experiment [2], 1.56 µg/mL (≈ 4.39 µM).

Turning to `CC=CCOc1ccc2cc(CNC(=O)c3cccnc3N)oc2c1` [Example 69, 2-Amino-N-(6-but-2-enyloxy-benzofuran-2-ylmethyl)-nicotinamide], the MIC in experiment [1] and in experiment [2] was 0.39 µg/mL (≈ 1.16 µM) in each case.

In the case of `CCCCc1ccc2oc(CNC(=O)c3ccc(COC)nc3N)cc2c1` [Example 57, 2-Amino-N-(5-butyl-benzofuran-2-ylmethyl)-6-methoxymethyl-nicotinamide], the MIC worked out at 6.25 µg/mL (≈ 17 µM) in experiment [1] and 1.56 µg/mL (≈ 4.25 µM) in experiment [2].

Turning to `CCCOc1ccc2cc(CNC(=O)c3ccc(COC)nc3N)oc2c1` [Example 37, 2-Amino-6-methoxymethyl-N-(6-propoxy-benzofuran-2-ylmethyl)-nicotinamide], the MIC in experiment [1] is 0.2 µg/mL (≈ 0.541 µM).

As for `COCc1ccc(C(=O)NCc2cc3ccc(OCc4cccnc4)cc3o2)c(N)n1` [Example 45, 2-Amino-6-methoxymethyl-N-(6-(pyridin-3-ylmethoxy)-benzofuran-2-ylmethyl)-nicotinamide], the MIC in experiment [1] and in experiment [2] was 12.5 µg/mL (≈ 29.9 µM) in each case.

Take `CCC(C)COc1ccc2cc(CNC(=O)c3ccc(COC)nc3N)oc2c1` (stereo not drawn) [Example 29, 2-Amino-6-methoxymethyl-N-(6-(2-methyl-butoxy)-benzofuran-2-ylmethyl)-nicotinamide]: the MIC in experiment [1] worked out at 1.56 µg/mL (≈ 3.92 µM); in experiment [2] it was 6.25 µg/mL (≈ 15.7 µM).

As for `CC(C)(C)COc1ccc2cc(CNC(=O)c3ccc(N)nc3N)oc2c1` [Example 16, 2,6-Diamino-N-(6-(2,2-dimethyl-propoxy)-benzofuran-2-ylmethyl)-nicotinamide], the MIC was found to be 3.13 µg/mL (≈ 8.5 µM) in experiment [1] and 6.25 µg/mL (≈ 17 µM) in experiment [2].

In the case of `Nc1ncccc1C(=O)NCc1cc2ccc(OCC3CC3)cc2o1` [Example 72, 2-Amino-N-(6-cyclopropylmethoxy-benzofuran-2-ylmethyl)-nicotinamide], the MIC stood at 0.78 µg/mL (≈ 2.31 µM) in experiment [1] and 1.56 µg/mL (≈ 4.62 µM) in experiment [2].

As to `CCCCOc1ccc2cc(CNC(=O)c3ccc(COC)nc3N)oc2c1` [Example 25, 2-Amino-N-(6-butoxy-benzofuran-2-ylmethyl)-6-methoxymethyl-nicotinamide], the MIC in experiment [1] was 0.78 µg/mL (≈ 2.03 µM).

In the case of `COCc1ccc(C(=O)NCc2cc3ccc(OCc4ccncc4)cc3o2)c(N)n1` [Example 46, 2-Amino-6-methoxymethyl-N-(6-(pyridin-4-ylmethoxy)-benzofuran-2-ylmethyl)-nicotinamide], the MIC in experiment [1] is 0.39 µg/mL (≈ 0.932 µM).

For `C#CCOc1ccc2cc(CNC(=O)c3ccc(COC)nc3N)oc2c1` [Example 39, 2-Amino-6-methoxymethyl-N-(6-prop-2-ynyloxy-benzofuran-2-ylmethyl)-nicotinamide], the MIC in experiment [1] and in experiment [2] was 1.56 µg/mL (≈ 4.27 µM) throughout.

As to `COCc1ccc(C(=O)NCc2cc3ccc(OCC4CCCCO4)cc3o2)c(N)n1` (stereo not drawn) [Example 33, 2-Amino-6-methoxymethyl-N-(6-(tetrahydro-pyran-2-ylmethoxy)-benzofuran-2-ylmethyl)-nicotinamide], the MIC in experiment [1] is 12.5 µg/mL (≈ 29.4 µM).

With `C#CCOc1ccc2cc(CNC(=O)c3cccnc3N)oc2c1` [Example 70, 2-Amino-N-(6-prop-2-ynyloxy-benzofuran-2-ylmethyl)-nicotinamide], the MIC in experiment [1] came out at 0.78 µg/mL (≈ 2.43 µM); in experiment [2], 1.56 µg/mL (≈ 4.85 µM).

As to `CCOc1ccc2cc(CNC(=O)c3cccnc3N)oc2c1` [Example 59, 2-Amino-N-(6-ethoxy-benzofuran-2-ylmethyl)-nicotinamide], the values for the MIC in experiment [1] and in experiment [2] were 0.78 µg/mL (≈ 2.51 µM) and 3.13 µg/mL (≈ 10.1 µM), respectively.

As for `CCOCCOc1ccc2cc(CNC(=O)c3ccc(COC)nc3N)oc2c1` [Example 41, 2-Amino-N-(6-(2-ethoxy-ethoxy)-benzofuran-2-ylmethyl)-6-methoxymethyl-nicotinamide], the MIC in experiment [1] was determined as 3.13 µg/mL (≈ 7.84 µM).

For the compound `COCc1ccc(C(=O)NCc2cc3ccc(OCc4ccccn4)cc3o2)c(N)n1` [Example 44, 2-Amino-6-methoxymethyl-N-(6-(pyridin-2-ylmethoxy)-benzofuran-2-ylmethyl)-nicotinamide], the MIC in experiment [1] was 0.78 µg/mL (≈ 1.86 µM); in experiment [2], 6.25 µg/mL (≈ 14.9 µM).

Take `Nc1ccc(C(=O)NCc2cc3cc(OCc4ccccc4)ccc3o2)c(N)n1` [Example 51, 2,6-Diamino-N-(5-benzyloxy-benzofuran-2-ylmethyl)-nicotinamide]: the MIC in experiment [1] was found to be 0.2 µg/mL (≈ 0.515 µM); in experiment [2], 0.78 µg/mL (≈ 2.01 µM).

With `Nc1ccc(C(=O)NCc2cc3ccc(OCc4ccccc4F)cc3o2)c(N)n1` [Example 23, 2,6-Diamino-N-(6-(2-fluoro-benzyloxy)-benzofuran-2-ylmethyl)-nicotinamide], the “Anti-Candida activity (minimum growth inhibitory concentration, MIC)” value in experiment [1] was found to be 1.56 µg/mL.

For the compound `Nc1ncccc1C(=O)NCc1cc2ccc(OCc3ccccc3)cc2o1` [Example 58, 2-Amino-N-(6-benzyloxy-benzofuran-2-ylmethyl)-nicotinamide], the MIC in experiment [1] is 0.1 µg/mL (≈ 0.268 µM); in experiment [2], 1.56 µg/mL (≈ 4.18 µM).

Consider `CC=CCOc1ccc2cc(CNC(=O)c3ccc(COC)nc3N)oc2c1` [Example 38, 2-Amino-N-(6-but-2-enyloxy-benzofuran-2-ylmethyl)-6-methoxymethyl-nicotinamide], for which the figures for the MIC in experiment [1] and in experiment [2] were 0.39 µg/mL (≈ 1.02 µM) and 0.78 µg/mL (≈ 2.04 µM), respectively.

For `COCc1ccc(C(=O)NCc2cc3ccc(OCc4ccccc4)cc3s2)c(N)n1` [Example 77, 2-Amino-N-(6-benzyloxy-benzo[b]thiophen-2-ylmethyl)-6-methoxymethyl-nicotinamide], the MIC in experiment [1] worked out at 0.39 µg/mL (≈ 0.9 µM); in experiment [2], 3.13 µg/mL (≈ 7.22 µM).

Turning to `Nc1ccc(C(=O)NCc2cc3cc(OCC4CC4)ccc3o2)c(N)n1` [Example 53, 2,6-Diamino-N-(5-cyclopropylmethoxy-benzofuran-2-ylmethyl)-nicotinamide], the MIC in experiment [1] and in experiment [2] was 6.25 µg/mL (≈ 17.7 µM) throughout.

Turning to `COCc1ccc(C(=O)NCc2cc3ccc(OC)cc3o2)c(N)n1` [Example 24, 2-Amino-N-(6-methoxy-benzofuran-2-ylmethyl)-6-methoxymethyl-nicotinamide], the figures for the MIC in experiment [1] and in experiment [2] were 6.25 µg/mL (≈ 18.3 µM) and 3.13 µg/mL (≈ 9.17 µM), respectively.

In the case of `COCc1ccc(C(=O)NCc2cc3ccc(Oc4ccccc4)cc3o2)c(N)n1` [Example 49, 2-Amino-6-methoxymethyl-N-(6-phenoxy-benzofuran-2-ylmethyl)-nicotinamide], the results for the MIC in experiment [1] and in experiment [2] were 0.39 µg/mL (≈ 0.967 µM) and 6.25 µg/mL (≈ 15.5 µM), respectively.

With `COCc1ccc(C(=O)NCc2cc3ccc(OCc4cccc(F)c4)cc3o2)c(N)n1` [Example 43, 2-Amino-N-(6-(3-fluoro-benzyloxy)-benzofuran-2-ylmethyl)-6-methoxymethyl-nicotinamide], the values for the MIC in experiment [1] and in experiment [2] were 0.78 µg/mL (≈ 1.79 µM) and 6.25 µg/mL (≈ 14.4 µM), respectively.

With `Nc1ccc(C(=O)NCc2cc3ccc(OCc4cccc(F)c4)cc3o2)c(N)n1` [Example 22, 2,6-Diamino-N-(6-(3-fluoro-benzyloxy)-benzofuran-2-ylmethyl)-nicotinamide], the MIC in experiment [1] was 0.39 µg/mL (≈ 0.96 µM); in experiment [2] it was 1.56 µg/mL (≈ 3.84 µM).

With `CCOCc1ccc2oc(CNC(=O)c3ccc(COC)nc3N)cc2c1` [Example 81, 2-Amino-N-(5-ethoxymethyl-benzofuran-2-ylmethyl)-6-methoxymethyl-nicotinamide], the MIC in experiment [2] worked out at 6.25 µg/mL (≈ 16.9 µM).

As for `CC(C)=CCOc1ccc2cc(CNC(=O)c3ccc(N)nc3N)oc2c1` [Example 17, 2,6-Diamino-N-(6-(3-methyl-but-2-enyloxy)-benzofuran-2-ylmethyl)-nicotinamide], in experiment [1], the MIC worked out at 0.78 µg/mL (≈ 2.13 µM).

Regarding “2,6-Diamino-N-(6-(2-phenoxy-ethoxy)-benzofuran-2-ylmethyl)-nicotinamide [Example 80]”, the “Anti-Candida activity (minimum growth inhibitory concentration, MIC)” value in experiment [1] amounted to 3.13 µg/mL.

For `COCc1ccc(C(=O)NCc2cc3cc(Br)ccc3o2)c(N)n1` [Example 79, 2-Amino-N-(5-bromo-benzofuran-2-ylmethyl)-6-methoxymethyl-nicotinamide], in experiment [2], the MIC was determined as 12.5 µg/mL (≈ 32 µM).

Turning to `COCc1ccc(C(=O)NCc2cc3ccc(OCc4ccccc4F)cc3o2)c(N)n1` [Example 42, 2-Amino-N-(6-(2-fluoro-benzyloxy)-benzofuran-2-ylmethyl)-6-methoxymethyl-nicotinamide], the figures for the MIC in experiment [1] and in experiment [2] were 1.56 µg/mL (≈ 3.58 µM) and 3.13 µg/mL (≈ 7.19 µM), respectively.

With `CCC(C)COc1ccc2cc(CNC(=O)c3cccnc3N)oc2c1` (stereo not drawn) [Example 65, 2-Amino-N-(6-(2-methyl-butoxy)-benzofuran-2-ylmethyl)-nicotinamide], the MIC turned out to be 1.56 µg/mL (≈ 4.41 µM) in experiment [1] and 3.13 µg/mL (≈ 8.86 µM) in experiment [2].

Take `COCc1ccc(C(=O)NCc2cc3ccc(OCC4CC4)cc3[nH]2)c(N)n1` [Example 73, 2-Amino-N-(6-cyclopropylmethoxy-1H-indol-2-ylmethyl)-6-methoxymethyl-nicotinamide]: the MIC in experiment [2] was determined as 25 µg/mL (≈ 65.7 µM).

Regarding `CC#CCOc1ccc2cc(CNC(=O)c3ccc(N)nc3N)oc2c1` [Example 8, 2,6-Diamino-N-(6-but-2-ynyloxy-benzofuran-2-ylmethyl)-nicotinamide], in experiment [1], the MIC was found to be 1.56 µg/mL (≈ 4.45 µM).

For `CC(C)CCOc1ccc2cc(CNC(=O)c3ccc(N)nc3N)oc2c1` [Example 14, 2,6-Diamino-N-(6-(3-methyl-butoxy)-benzofuran-2-ylmethyl)-nicotinamide], in experiment [1], the MIC was determined as 1.56 µg/mL (≈ 4.23 µM).
